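Assay format: 96-well plates, 48-hour exposure. GI50: concentration for 50% inhibition of growth. TGI marks complete inhibition of growth.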
Legend:
Test in all cases: DTP human tumour cell line panel, 48 h
[1] = system: DU-145 prostate
[2] = system: MCF7 breast
[3] = system: IGROV1 ovarian
[4] = system: SR leukemia
[5] = system: OVCAR-5 ovarian
[6] = system: SK-MEL-2 melanoma
[7] = system: UACC-257 melanoma
[8] = system: SF-268 CNS
[9] = system: OVCAR-4 ovarian
[10] = system: ACHN renal
[11] = system: COLO 205 colon
[12] = system: 786-0 renal
[13] = system: KM12 colon
[14] = system: OVCAR-8 ovarian
[15] = system: SW-620 colon
[16] = system: HL-60(TB) leukemia
[17] = system: UO-31 renal
[18] = system: HCC-2998 colon
[19] = system: SK-OV-3 ovarian
[20] = system: CCRF-CEM leukemia
[21] = system: NCI/ADR-RES ovarian
[22] = system: A549 NSCLC
[23] = system: RPMI-8226 leukemia
[24] = system: NCI-H226 lung
[25] = system: MDA-MB-435
[26] = system: UACC-62 melanoma
[27] = system: SNB-19 CNS
[28] = system: M14 melanoma
[29] = system: BT-549 breast
[30] = system: SF-295 CNS
[31] = system: TK-10 renal
[32] = system: SK-MEL-28 melanoma
[33] = system: LOX IMVI melanoma
[34] = system: HCT-15 colon
[35] = system: MOLT-4 leukemia
[36] = system: U251 CNS
[37] = system: HS 578T breast
[38] = system: K-562 leukemia
[39] = system: NCI-H460 lung
[40] = system: NCI-H23 lung
[41] = system: OVCAR-3 ovarian
[42] = system: SK-MEL-5 melanoma
[43] = system: MDA-MB-231 breast
[44] = system: SNB-75 CNS
[45] = system: HOP-62 NSCLC
[46] = system: CAKI-1 renal
[47] = system: HCT-116 colon
[48] = system: RXF 393 renal
[49] = system: SN12C renal
[50] = system: SF-539 CNS
[51] = system: NCI-H522 lung
[52] = system: EKVX NSCLC
[53] = system: HOP-92 NSCLC
[54] = system: PC-3 prostate
[55] = system: HT29 colon
[56] = system: MALME-3M melanoma
[57] = system: T-47D breast
[58] = system: A498 renal

C#C[C@]1(O)CC[C@H]2[C@@H]3CC=C4c5sc(-c6ccc(C)cc6)nc5CC[C@]4(C)[C@H]3CC[C@@]21C
GI50 [1]: > 100 µM | TGI [1]: > 100 µM | GI50 [2]: 46.8 µM | TGI [2]: > 100 µM | GI50 [3]: > 100 µM | TGI [3]: > 100 µM | GI50 [4]: > 100 µM | TGI [4]: > 100 µM | GI50 [5]: > 100 µM | TGI [5]: > 100 µM | GI50 [6]: > 100 µM | TGI [6]: > 100 µM | GI50 [7]: > 100 µM | TGI [7]: > 100 µM | GI50 [8]: > 100 µM | TGI [8]: > 100 µM | GI50 [9]: > 100 µM | TGI [9]: > 100 µM | GI50 [10]: > 100 µM | TGI [10]: > 100 µM | GI50 [11]: > 100 µM | TGI [11]: > 100 µM | GI50 [12]: 3.41 µM | TGI [12]: 61.6 µM | GI50 [13]: > 100 µM | TGI [13]: > 100 µM | GI50 [14]: > 100 µM | TGI [14]: > 100 µM | GI50 [15]: > 100 µM | TGI [15]: > 100 µM | GI50 [16]: 35.6 µM | TGI [16]: > 100 µM | GI50 [17]: 28.9 µM | TGI [17]: > 100 µM | GI50 [18]: > 100 µM | TGI [18]: > 100 µM | GI50 [19]: > 100 µM | TGI [19]: > 100 µM | GI50 [20]: > 100 µM | TGI [20]: > 100 µM | GI50 [21]: > 100 µM | TGI [21]: > 100 µM | GI50 [22]: 95.5 µM | TGI [22]: > 100 µM | GI50 [23]: 1.91 µM | TGI [23]: > 100 µM | GI50 [24]: > 100 µM | TGI [24]: > 100 µM | GI50 [25]: > 100 µM | TGI [25]: > 100 µM | GI50 [26]: > 100 µM | TGI [26]: > 100 µM | GI50 [27]: > 100 µM | TGI [27]: > 100 µM | GI50 [28]: 30.6 µM | TGI [28]: > 100 µM | GI50 [29]: 25.9 µM | TGI [29]: > 100 µM | GI50 [30]: 2.69 µM | TGI [30]: > 100 µM | GI50 [31]: > 100 µM | TGI [31]: > 100 µM | GI50 [32]: > 100 µM | TGI [32]: > 100 µM | GI50 [33]: > 100 µM | TGI [33]: > 100 µM | GI50 [34]: 12.8 µM | TGI [34]: > 100 µM | GI50 [35]: 45.2 µM | TGI [35]: > 100 µM | GI50 [36]: 61 µM | TGI [36]: > 100 µM | GI50 [37]: 4.17 µM | TGI [37]: > 100 µM | GI50 [38]: 9.35 µM | TGI [38]: > 100 µM | GI50 [39]: > 100 µM | TGI [39]: > 100 µM | GI50 [40]: > 100 µM | TGI [40]: > 100 µM | GI50 [41]: > 100 µM | TGI [41]: > 100 µM | GI50 [42]: > 100 µM | TGI [42]: > 100 µM | GI50 [43]: > 100 µM | TGI [43]: > 100 µM | GI50 [44]: 6.29 µM | TGI [44]: > 100 µM | GI50 [45]: > 100 µM | TGI [45]: > 100 µM | GI50 [46]: 60.9 µM | TGI [46]: > 100 µM | GI50 [47]: 18.3 µM | TGI [47]: > 100 µM | GI50 [48]: 4.29 µM | TGI [48]: > 100 µM | GI50 [49]: > 100 µM | TGI [49]: > 100 µM | GI50 [50]: 2.31 µM | TGI [50]: > 100 µM | GI50 [51]: > 100 µM | TGI [51]: > 100 µM | GI50 [52]: > 100 µM | TGI [52]: > 100 µM | GI50 [53]: 36.5 µM | TGI [53]: > 100 µM | GI50 [54]: 26.2 µM | TGI [54]: > 100 µM | GI50 [55]: 24.5 µM | TGI [55]: > 100 µM | GI50 [56]: > 100 µM | TGI [56]: > 100 µM | GI50 [57]: 93.7 µM | TGI [57]: > 100 µM | GI50 [58]: > 100 µM | TGI [58]: > 100 µM

From PubChem BioAssay (NCI)
